Test results reported in US12441706B2, “Protein degradation agent compound preparation method and application” (SHANGHAI JEMINCARE PHARMACEUTICALS CO., LTD., priority 2019, dated 2025).
Where two headings read alike, the source gives them in different places. Values belong to the compound of their own block, whether it stands above or below them.

Tests used:
[1] = system: VCap cells; assay: Inhibition of proliferation of VCap cells (Cell Titer Glo, 6 days); assay type: cell-based; conditions: Homo sapiens, 144 h
Experimental: Tumor cell line VCap FGC (ATCC catalog number CRL-2876) was cultured in DMEM (Gibco catalog number 11965-092) medium containing 10% FBS (Gibco catalog number 10099-141C), respectively. During the determination, Vcap cells were replaced with DMEM medium containing 5% FBS and 0.1 nM R1881 (Sigma catalog number R0908).
(§1) Vcap FGC cells were inoculated in a 384-well plate (Perkin Elmer catalog number 6007460) at a cell density of 1200 cells/well in a volume of 20 μL/well and incubated overnight in a carbon dioxide incubator (Thermo). The prepared compound solutions of different concentrations were added in a volume of 5 μL/well. The corresponding vehicle control was set at the same time. After being cultured in the incubator for 6 days, the cell plate and the contents were equilibrated to room temperature, and 25 μL of Cell Titer Glor (Promega catalog number G7573) was added to each well, shake and mix well, incubated in dark for 10-30 minutes, and the signal values were detected though Envision microplate reader (PerkinElmer).
(§2) The percentage inhibition rate of compound-treated wells was calculated from vehicle control wells on the plate, and the percentage inhibition rate data corresponding to different concentrations were fitted by GraphPad prism, and the IC50 values were calculated by 4-parameter nonlinear logic formula.

[2] = In vivo pharmacokinetics in mice, intravenous injection and oral administration; design: species or system mouse; conditions: male CD1 mice
Experimental: In this experimental example, in vivo pharmacokinetics in mice were evaluated by intravenous injection and oral administration.
Experimental methods and conditions: Male CD1 mice, aged 6-8 weeks, all animals were free access to food and water, and were given a single dose of the compound to be tested at 1 mg/Kg by intravenous injection (solvent 5% DMSO/15% Solutol/80% Saline), at 5 min, 15 min, 30 min, 1 hr, 2 hr, 4 hr, 8 hr, 24 hr, 48 h after drug administration, or oral gavage administration of 10 mg/kg (solvent 5% DMSO/10% Solutol/85% Saline), at 15 min, 30 min, 1 hr, 2 hr, 4 hr, 6 h, 8 hr, 24 hr, 48 h after administration, blood was collected from the orbit, no less than 50 μL for each sample, heparin sodium was used for anticoagulation, and then placed on ice after collection, and centrifuged within 1 hour to separate the plasma for testing. The plasma concentration of the drug was detected by liquid tandem mass spectrometry (LC/MS/MS), and the pharmacokinetic parameters were calculated by Phoenix WinNonlin software.

[3] = system: LNcap FGC cells; assay: Inhibition of proliferation of LNcap FGC cells (Cell Titer Glo, 6 days); assay type: cell-based; conditions: Homo sapiens, 144 h
Experimental: Tumor cell line LNcap FGC (ATCC catalog number CRL-1740) was cultured in RPMI 1640 (Gibco catalog number 11875-093) and DMEM (Gibco catalog number. 11965-092) medium containing 10% FBS (Gibco catalog number 10099-141C), respectively.
as §1, with “LNcap” for “Vcap”, “400” for “1200”, “shook” for “shake”, “mixed” for “mix”, “with” for “though”
as §2, with “from the” for “from”

[4] = target: T1, androgen receptor (Homo sapiens, UniProt P10275, T878A); assay: In-Cell-Western determination of androgen receptor degradation in LnCaP cells; assay type: cell-based; conditions: for DC50: concentration for half of the maximal degradation of AR in LnCaP cells
T1 construct: endogenous in cells; host or cells: LNCaP cells
T1 sequence (P10275 1-920 T878A): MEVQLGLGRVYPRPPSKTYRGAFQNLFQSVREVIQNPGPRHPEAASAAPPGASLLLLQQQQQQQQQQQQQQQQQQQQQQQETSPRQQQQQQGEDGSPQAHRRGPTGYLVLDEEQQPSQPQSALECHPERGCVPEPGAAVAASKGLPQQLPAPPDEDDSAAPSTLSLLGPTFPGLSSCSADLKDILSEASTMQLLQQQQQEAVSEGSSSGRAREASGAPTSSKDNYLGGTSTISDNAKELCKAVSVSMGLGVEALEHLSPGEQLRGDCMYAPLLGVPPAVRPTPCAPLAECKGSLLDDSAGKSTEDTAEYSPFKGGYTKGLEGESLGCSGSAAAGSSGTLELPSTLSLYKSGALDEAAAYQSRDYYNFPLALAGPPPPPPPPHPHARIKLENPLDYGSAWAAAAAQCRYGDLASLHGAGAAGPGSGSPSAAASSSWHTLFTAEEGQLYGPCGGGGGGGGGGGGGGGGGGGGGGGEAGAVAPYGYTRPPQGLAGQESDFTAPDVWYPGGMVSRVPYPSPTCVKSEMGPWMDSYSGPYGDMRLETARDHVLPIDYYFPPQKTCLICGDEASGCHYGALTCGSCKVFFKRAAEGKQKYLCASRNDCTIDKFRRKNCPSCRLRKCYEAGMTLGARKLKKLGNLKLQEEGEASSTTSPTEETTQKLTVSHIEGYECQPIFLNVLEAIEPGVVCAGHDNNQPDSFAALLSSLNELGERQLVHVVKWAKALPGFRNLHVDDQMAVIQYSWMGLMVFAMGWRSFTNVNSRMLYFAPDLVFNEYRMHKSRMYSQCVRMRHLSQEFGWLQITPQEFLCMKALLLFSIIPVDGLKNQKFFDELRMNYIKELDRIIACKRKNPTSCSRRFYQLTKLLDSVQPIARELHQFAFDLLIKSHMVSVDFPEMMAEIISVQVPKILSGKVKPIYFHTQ
Experimental: The determination evaluated the properties of the compounds in Lncap cells. Intracellular androgen receptor was determined by In-Cell-Western according to the determination steps described below.
In poly-D-Lysin pretreated 96-well cell culture plate (Corning 3599), LNcap cells were divided into 100 μL/well volume, and inoculated with 30,000 cells/well in LNcap cell assay medium [DMEM containing phenol red (Gibco catalog number: 11995065); fetal bovine serum FBS (Gibco catalog number: 10099141C)]. Cells were cultured for at least two days.
1. First treated cells with compound. Compounds were gradient diluted with DMSO and cell culture medium, so that DMSO contained in cell culture plates was diluted to 0.5% —polypropylene plates were used according to the following protocol: (1)(i) 200× stock plate in DMSO was prepared; (ii) 10 mM stock solution was diluted 1:4 with DMSO (10 μL stock solution+40 μL DMSO)=2000 μM, then entered into row 2; (iii) 1:4 (10 μL protac+40 μL DMSO) gradient dilution was performed from row 2 to row 9, and row 1 was reserved for […] reference compound and row 10 for DMSO. (iv) A total of 8 concentrations (final concentrations on the 200× plate were 2000 μM, 400 μM and 80 μM, etc.). (2) (i) 3× stock solution was prepared in the medium. (ii) 3 μL of 200× stock solution was transferred to 197 µL of culture medium (using 12-channel pipette, from line 1 to line 10), i.e. 3× stock solution plate. (iii) The stock solution plate was mixed evenly. (3) (i) The culture medium of […] cells was replaced with fresh culture medium, 100 μL volume culture medium. (ii) The well-mixed 3× stock solution was transferred to the cell culture plate (using a 12-channel pipette, and 50 μL of stock solution was transferred from line 1 to line 10). (iii) Cells were cultured for 24 hours.
2. The expression level of intracellular androgen receptor after compound treatment was […] and determined according to the following method.
(1)(i) Equal volume of 8% paraformaldehyde was added to the cell culture plate for cell fixation. The fixing solution in the cell plate was discarded and washed three times with PBS. (ii) Triton solution (1:1000 dilution of the stock solution) was prepared. The solution in the cell plate was discarded, and 200 μL of Triton diluent was added into each well. (iii) 2×blocking solution (1:4 dilution of 10×blocking stock solution) was prepared. The solution in the cell plate was discarded, and 100 μL of 2×blocking solution was added into each well. (iv) Primary antibody solution (Androgen receptor Rabbbit mAb, Cell Signaling Technology catalog number: 5153; 1:1000 dilution) was prepared. The solution in the cell plate was discarded, 100 μL volume of primary antibody diluent was added to each well, and incubated at 4° C. overnight. (v) The primary antibody solution was discarded and the cell plate was washed with 1×Wash buffer. (vi) Secondary antibody solution (GOAT Antirabbit IgG (H+L), HRP, Thermo catalog number: 31460; 1:5000 dilution) was prepared, and 100 μL volume of secondary antibody dilution was added to each well for incubation. (vii) The secondary antibody solution in the cell plate was discarded and the cell plate was washed with 1×Wash buffer. (viii) TMB chromogenic solution (BD catalog number: 550534) was prepared, and 100 μL chromogenic solution was added into each well. (ix) 50 μL volume of stop solution (BD catalog number: 550534) was added to each well. (x) The absorption values at OD 450 nm and 570 nm were read though EnVision. (2) (i) Normalized analysis was performed on the number of cells in each well. The solution in the cell plate was discarded, and washed with wash buffer for three times. (ii) Janus dilution (1:3 dilution) was prepared. (iii) 50 μL volume diluent was added to each well for incubation. (iv) The solution in the plate was discarded and washed with deionized water. […]

[5] = mouse, intravenous administration 1 mg/kg, plasma
[6] = mouse, oral administration 10 mg/kg, plasma
[7] = LnCaP cell proliferation, 6 days, read-out: IC50
[8] = maximum degree of inhibition of LnCaP cell proliferation, 6 days, read-out: Emax

SMILES: CC1(C)C(=O)N(c2ccc(C#N)c(Cl)c2)c2ccc(-c3ncc(N4CC(CN5CCN(c6ccc7c(c6)C(=O)N(C6CCC(=O)NC6=O)C7=O)CC5)C4)cn3)cc21 (centres unmarked) [Compound 6]
Emax ([1]; VCaP): 94%
IC50 ([1]; VCaP): 81 nM
F ([2]; oral administration 10 mg/kg vs intravenous 1 mg/kg): 71.3%
AUC(0-inf) [2, 5]: 9860 ng·h/mL
clearance [2, 5]: 1.69 mL/min/kg
half-life [2, 5]: 11.2 h
AUC(0-inf) [2, 6]: 70300 ng·h/mL
Cmax [2, 6]: 2920 ng/mL
half-life [2, 6]: 11.2 h
Emax ([3]; LNCaP): 99%
IC50 ([3]; LNCaP): 76.7 nM

DC50 ([4]; 24 hours treatment, read-out: DC50): 74.7 nM
Dmax ([4]; maximum degradation of AR in LnCaP cells, 24 hours treatment, read-out: Dmax): 74%
SMILES: CC1(C)C(=O)N(c2cnc(C#N)c(Cl)c2)c2ccc(-c3ccc(N4CC(CN5CCN(c6ccc7c(c6)C(=O)N(C6CCC(=O)NC6=O)C7=O)CC5)C4)cc3)cc21 (centres unmarked) [Compound 11]

SMILES: CC1(C)C(=O)N(c2ccc(C#N)c(C(F)(F)F)c2)c2ccc(-c3ccc(N4CC(CN5CCN(c6ccc7c(c6)C(=O)N(C6CCC(=O)NC6=O)C7=O)CC5)C4)nc3F)cc21 (centres unmarked) [Compound 15]
Dmax ([4]; LNCaP): 67%
DC50 ([4]; 24 hours treatment): 3.49 nM
Emax ([1]; VCaP): 92%
IC50 ([1]; VCaP): 82 nM

SMILES: CC1(C)C(=O)N(c2ccc(C#N)c(Cl)c2)c2ccc(-c3ccc(N4CC(F)(CN5CCN(c6ccc7c(c6)C(=O)N(C6CCC(=O)NC6=O)C7=O)CC5)C4)cc3)cc21 (centres unmarked) [Compound 5]
IC50 [3, 7]: 95.7 nM
Emax [3, 8]: 93%

IC50 [3, 7]: 89.1 nM
SMILES: COc1cc(N2C(=O)C(C)(C)c3cc(-c4ccc(N5CC(CN6CCN(c7ccc8c(c7)C(=O)N(C7CCC(=O)NC7=O)C8=O)CC6)C5)cc4)ccc32)ccc1C#N (centres unmarked) [Compound 2]
Emax [3, 8]: 98%

SMILES: CC1(C)C(=O)N(c2ccc(C#N)c(Cl)c2)c2ccc(-c3ccc(-c4cnn(CCCN5CCN(c6ccc7c(c6)C(=O)N(C6CCC(=O)NC6=O)C7=O)CC5)c4)cc3)cc21 (centres unmarked) [Compound 13]
Dmax ([4]; LNCaP): 100%
DC50 ([4]; 24 hours treatment): 73.4 nM

SMILES: CC1(C)C(=O)N(c2ccc(C#N)c(Cl)c2)c2ccc(-c3cnc(N4CC(CN5CCN(c6ccc7c(c6)C(=O)N(C6CCC(=O)NC6=O)C7=O)CC5)C4)cn3)cc21 (centres unmarked) [Compound 10]
IC50 ([1]; VCaP cell proliferation, 6 days, 5% FBS and 0.1 nM R1881, read-out: IC50): 50 nM
Emax ([1]; maximum degree of inhibition of VCaP cell proliferation, 6 days, 5% FBS and 0.1 nM R1881, read-out: Emax): 98%
IC50 [3, 7]: 39.4 nM
Emax [3, 8]: 100%

SMILES: CC1(C)C(=O)N(c2ccc(C#N)c(Cl)c2)c2ccc(-c3ccc(-c4cnn(CCN5CCN(c6ccc7c(c6)C(=O)N(C6CCC(=O)NC6=O)C7=O)CC5)c4)cc3)cc21 (centres unmarked) [Compound 12]
Dmax ([4]; LNCaP): 75%
DC50 ([4]; 24 hours treatment): 78.8 nM
Emax ([3]; LNCaP): 68%
IC50 ([3]; LNCaP): 82 nM

SMILES: CC1(C)C(=O)N(c2ccc(C#N)c(Cl)c2)c2ccc(-c3ccc(N4CC(CN5CCN(c6cc7c(cc6F)C(=O)N(C6CCC(=O)NC6=O)C7=O)CC5)C4)cc3)cc21 (centres unmarked) [Compound 7]
Dmax ([4]; LNCaP): 75%
DC50 ([4]; 24 hours treatment): 72.1 nM

SMILES: CC1(C)C(=O)N(c2ccc(C#N)c(Cl)c2)c2ccc(-c3ccc(N4CC(CN5CCN(c6ccc7c(c6)CN(C6CCC(=O)NC6=O)C7=O)CC5)C4)cc3)cc21 (centres unmarked) [Compound 4]
Dmax ([4]; LNCaP): 91%
DC50 ([4]; 24 hours treatment): 108 nM
